According to the supplement of paper PMC7840683:
Structures can show the parent of a compound that is named as a salt. ± gives the standard deviation of the averaged measurements.

System: HepaRG
Assay: LDH release cytotoxicity, % of total lysis control; higher = more cytotoxic
Conditions: 48 h
How it was run: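 On collagen I-coated 96-well plates, single-lot HepaRG cells were exposed for 48 h, in duplicate, to eight-point half-log series of test chemicals beginning at 100 µM. The exposure medium was serum-free induction medium with 0.5% DMSO, and total lysis wells got 0.1% Triton X. Resorufin fluorescence from the CytoTox-ONE reaction, read on a Tecan Safire, reported LDH in 50 µL of spent medium. Percent cytotoxicity came from normalization to on-plate vehicle and total lysis controls, averaged over the duplicates.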

CN(C)C1C(=O)C(C(N)=O)C(=O)C2(O)C(=O)C3C(=O)c4c(O)cccc4C(C)(O)C3C(O)C12 (stereo not given) [Oxytetracycline dihydrate]
LDH release cytotoxicity (0.03162 µM): -2.54 ± 0.23% | LDH release cytotoxicity (0.1 µM): -1.62 ± 0.88% | LDH release cytotoxicity (0.3162278 µM): -1.71 ± 0.26% | LDH release cytotoxicity (1 µM): -1.95 ± 0.25% | LDH release cytotoxicity (3.16228 µM): -1.59 ± 0.099% | LDH release cytotoxicity (10 µM): -2.1 ± 0.93% | LDH release cytotoxicity (31.6228 µM): -3.27 ± 0.36% | LDH release cytotoxicity (100 µM): -4 ± 0.13%

CN(C)C1C(=O)C(C(N)=O)C(=O)C2(O)C(=O)C3C(=O)c4c(O)cccc4C(C)(O)C3C(O)C12 (stereo not given) [Oxytetracycline hydrochloride]
LDH release cytotoxicity (0.03162 µM): -0.636 ± 0.43% | LDH release cytotoxicity (0.1 µM): -0.707 ± 0.15% | LDH release cytotoxicity (0.3162278 µM): -1.81 ± 0.59% | LDH release cytotoxicity (1 µM): -1.93 ± 0.75% | LDH release cytotoxicity (3.16228 µM): -1.93 ± 0.7% | LDH release cytotoxicity (10 µM): -1.21 ± 0.36% | LDH release cytotoxicity (31.6228 µM): -1.75 ± 1.1% | LDH release cytotoxicity (100 µM): -1.47 ± 0.43%

CC(C)(C)C(O)C(Cc1ccc(Cl)cc1)n1cncn1 (stereo not given) [Paclobutrazol]
LDH release cytotoxicity (0.03162 µM): -0.9138 ± 0.0047% | LDH release cytotoxicity (0.1 µM): -1.5 ± 0.066% | LDH release cytotoxicity (0.3162278 µM): -1.02 ± 0.15% | LDH release cytotoxicity (1 µM): -1.49 ± 1.2% | LDH release cytotoxicity (3.16228 µM): -1.96 ± 1% | LDH release cytotoxicity (10 µM): -1.1 ± 0.17% | LDH release cytotoxicity (31.6228 µM): -1.36 ± 0.77% | LDH release cytotoxicity (100 µM): -0.278 ± 0.059%

CCOP(=S)(OCC)Oc1ccc([N+](=O)[O-])cc1 [Parathion]
LDH release cytotoxicity (0.03162 µM): -1.76 ± 1.2% | LDH release cytotoxicity (0.1 µM): -2.78 ± 0.71% | LDH release cytotoxicity (0.3162278 µM): -2.35 ± 0.15% | LDH release cytotoxicity (1 µM): -2.92 ± 0.81% | LDH release cytotoxicity (3.16228 µM): -3.21 ± 0.57% | LDH release cytotoxicity (10 µM): -2.39 ± 0.84% | LDH release cytotoxicity (31.6228 µM): -1.78 ± 1.4% | LDH release cytotoxicity (100 µM): 6.21 ± 0.097%

CCC(CC)Nc1c([N+](=O)[O-])cc(C)c(C)c1[N+](=O)[O-] [Pendimethalin]
LDH release cytotoxicity (0.03162 µM): -2.12 ± 0.66% | LDH release cytotoxicity (0.1 µM): -1.6 ± 0.38% | LDH release cytotoxicity (0.3162278 µM): -0.436 ± 0.39% | LDH release cytotoxicity (1 µM): 0.269 ± 1.7% | LDH release cytotoxicity (3.16228 µM): 1.12 ± 0.21% | LDH release cytotoxicity (10 µM): 0.875 ± 1.2% | LDH release cytotoxicity (31.6228 µM): -2.25 ± 0.069% | LDH release cytotoxicity (100 µM): 1.08 ± 1.2%

COc1cnc(OC)n2nc(NS(=O)(=O)c3c(OCC(F)F)cccc3C(F)(F)F)nc12 [Penoxsulam]
LDH release cytotoxicity (0.03162 µM): -0.317 ± 0.26% | LDH release cytotoxicity (0.1 µM): -1.82 ± 0.45% | LDH release cytotoxicity (0.3162278 µM): -1.21 ± 0.65% | LDH release cytotoxicity (1 µM): -1.71 ± 0.57% | LDH release cytotoxicity (3.16228 µM): -0.488 ± 0.1% | LDH release cytotoxicity (10 µM): -0.309 ± 0.71% | LDH release cytotoxicity (31.6228 µM): -1.02 ± 0.03% | LDH release cytotoxicity (100 µM): 0.729 ± 0.1%

O=[N+]([O-])c1c(Cl)c(Cl)c(Cl)c(Cl)c1Cl [Pentachloronitrobenzene]
LDH release cytotoxicity (0.03162 µM): -1.26 ± 0.72% | LDH release cytotoxicity (0.1 µM): -1.49 ± 0.11% | LDH release cytotoxicity (0.3162278 µM): -1.32 ± 0.71% | LDH release cytotoxicity (1 µM): -1.55 ± 1.1% | LDH release cytotoxicity (3.16228 µM): -0.822 ± 1.5% | LDH release cytotoxicity (10 µM): 0.118 ± 0.74% | LDH release cytotoxicity (31.6228 µM): 0.34 ± 0.41% | LDH release cytotoxicity (100 µM): 2.25 ± 1.1%

Oc1c(Cl)c(Cl)c(Cl)c(Cl)c1Cl [Pentachlorophenol]
LDH release cytotoxicity (0.0161276 µM): -0.227 ± 0.28% | LDH release cytotoxicity (0.051 µM): -1.03 ± 0.34% | LDH release cytotoxicity (0.161276 µM): -1.01 ± 0.69% | LDH release cytotoxicity (0.51 µM): -0.425 ± 0.32% | LDH release cytotoxicity (1.6127616 µM): 1.21 ± 0.41% | LDH release cytotoxicity (5.1 µM): 9 ± 4.7% | LDH release cytotoxicity (16.127616 µM): 41.1 ± 1.3% | LDH release cytotoxicity (51 µM): 40.65 ± 0.23%

Clc1nc(Cl)c(Cl)c(Cl)c1Cl [Pentachloropyridine]
LDH release cytotoxicity (0.03162 µM): -0.545 ± 0.73% | LDH release cytotoxicity (0.1 µM): -1.54 ± 0.25% | LDH release cytotoxicity (0.3162278 µM): -1.28 ± 1.4% | LDH release cytotoxicity (1 µM): -1.08 ± 1.1% | LDH release cytotoxicity (3.16228 µM): -0.873 ± 0.5% | LDH release cytotoxicity (10 µM): -1.56 ± 0.52% | LDH release cytotoxicity (31.6228 µM): -0.833 ± 0.26% | LDH release cytotoxicity (100 µM): 0.716 ± 0.84%

CCCCCCCCCCCCCCC [Pentadecane]
LDH release cytotoxicity (0.03162 µM): -1.39 ± 0.28% | LDH release cytotoxicity (0.1 µM): -0.5079 ± 0.0034% | LDH release cytotoxicity (0.3162278 µM): -0.0639 ± 1.3% | LDH release cytotoxicity (1 µM): -1.27 ± 1.5% | LDH release cytotoxicity (3.16228 µM): -0.987 ± 0.93% | LDH release cytotoxicity (10 µM): -0.163 ± 0.94% | LDH release cytotoxicity (31.6228 µM): 0.517 ± 0.29% | LDH release cytotoxicity (100 µM): 1.96 ± 1.3%

OCC(CO)(CBr)CBr [Pentaerythritol dibromide]
LDH release cytotoxicity (0.03162 µM): -0.95 ± 0.41% | LDH release cytotoxicity (0.1 µM): -1.43 ± 0.67% | LDH release cytotoxicity (0.3162278 µM): -2.05 ± 0.21% | LDH release cytotoxicity (1 µM): -2.19 ± 0.11% | LDH release cytotoxicity (3.16228 µM): -1.68 ± 0.31% | LDH release cytotoxicity (10 µM): -1.56 ± 0.1% | LDH release cytotoxicity (31.6228 µM): -0.856 ± 0.31% | LDH release cytotoxicity (100 µM): 0.8 ± 1.4%

OCC(CO)(CO)CO [Pentaerythritol]
LDH release cytotoxicity (0.03162 µM): -0.674 ± 0.59% | LDH release cytotoxicity (0.1 µM): -1.13 ± 0.089% | LDH release cytotoxicity (0.3162278 µM): -1.3 ± 0.092% | LDH release cytotoxicity (1 µM): -1.89 ± 1% | LDH release cytotoxicity (3.16228 µM): -0.206 ± 1.4% | LDH release cytotoxicity (10 µM): -1.15 ± 0.98% | LDH release cytotoxicity (31.6228 µM): -0.431 ± 0.65% | LDH release cytotoxicity (100 µM): 0.764 ± 0.28%

N=C(N)c1ccc(OCCCCCOc2ccc(C(=N)N)cc2)cc1 [Pentamidine isethionate]
LDH release cytotoxicity (0.0276699 µM): -1.83 ± 0.92% | LDH release cytotoxicity (0.0875 µM): -2.81 ± 0.69% | LDH release cytotoxicity (0.276699 µM): -2.72 ± 0.49% | LDH release cytotoxicity (0.875 µM): -3.54 ± 0.15% | LDH release cytotoxicity (2.76699 µM): -2.52 ± 0.068% | LDH release cytotoxicity (8.75 µM): 19 ± 1.4% | LDH release cytotoxicity (27.6699 µM): 68.9 ± 1% | LDH release cytotoxicity (87.5 µM): 73.7 ± 2%

CCCCC=O [Pentanal]
LDH release cytotoxicity (0.031623 µM): 0.98 ± 0.79% | LDH release cytotoxicity (0.1 µM): -1.98 ± 0.44% | LDH release cytotoxicity (0.316228 µM): -0.995 ± 0.23% | LDH release cytotoxicity (1 µM): -1.67 ± 0.41% | LDH release cytotoxicity (3.16228 µM): -1.94 ± 0.15% | LDH release cytotoxicity (10 µM): -1.12 ± 0.47% | LDH release cytotoxicity (31.6228 µM): -1.6 ± 0.26% | LDH release cytotoxicity (100 µM): 0.803 ± 0.68%

O=C(OCCCCCOC(=O)c1ccccc1)c1ccccc1 [Pentane-1,5-diyl dibenzoate]
LDH release cytotoxicity (0.03162 µM): -0.742 ± 0.19% | LDH release cytotoxicity (0.1 µM): -0.929 ± 0.18% | LDH release cytotoxicity (0.3162278 µM): -1.73 ± 0.77% | LDH release cytotoxicity (1 µM): -1.19 ± 0.099% | LDH release cytotoxicity (3.16228 µM): -0.893 ± 0.47% | LDH release cytotoxicity (10 µM): -0.935 ± 0.24% | LDH release cytotoxicity (31.6228 µM): -0.87 ± 0.083% | LDH release cytotoxicity (100 µM): -0.0778 ± 0.93%

CCCCCOC(C)=O [Pentyl acetate]
LDH release cytotoxicity (0.03162 µM): -10.9 ± 0.81% | LDH release cytotoxicity (0.1 µM): -10.5 ± 0.81% | LDH release cytotoxicity (0.3162278 µM): -10.2 ± 1.1% | LDH release cytotoxicity (1 µM): -11 ± 1.1% | LDH release cytotoxicity (3.16228 µM): -10.3 ± 0.5% | LDH release cytotoxicity (10 µM): -10.9 ± 1.1% | LDH release cytotoxicity (31.6228 µM): -10.3 ± 0.19% | LDH release cytotoxicity (100 µM): -10.02 ± 0.093%

O=C(O)C(F)(F)C(F)(F)C(F)(F)C(F)(F)C(F)(F)C(F)(F)C(F)(F)C(F)(F)C(F)(F)F [Perfluorodecanoic acid]
LDH release cytotoxicity (0.031623 µM): 2.61 ± 0.091% | LDH release cytotoxicity (0.1 µM): -0.365 ± 0.079% | LDH release cytotoxicity (0.316228 µM): -0.683 ± 1.6% | LDH release cytotoxicity (1 µM): -0.768 ± 0.65% | LDH release cytotoxicity (3.16228 µM): -7.62 ± 0.32% | LDH release cytotoxicity (10 µM): 7.64 ± 0.07% | LDH release cytotoxicity (31.6228 µM): 8.49 ± 0.18% | LDH release cytotoxicity (100 µM): 44.4 ± 6.8%

O=C(O)C(F)(F)C(F)(F)C(F)(F)C(F)(F)C(F)(F)C(F)(F)F [Perfluoroheptanoic acid]
LDH release cytotoxicity (0.03162 µM): -2.26 ± 1% | LDH release cytotoxicity (0.1 µM): -2.63 ± 0.69% | LDH release cytotoxicity (0.3162278 µM): -3.62 ± 0.96% | LDH release cytotoxicity (1 µM): -3.63 ± 0.086% | LDH release cytotoxicity (3.16228 µM): -2.82 ± 0.55% | LDH release cytotoxicity (10 µM): -2.95 ± 0.085% | LDH release cytotoxicity (31.6228 µM): -2.44 ± 0.19% | LDH release cytotoxicity (100 µM): -2.23 ± 0.48%

O=C(O)C(F)(F)C(F)(F)C(F)(F)C(F)(F)C(F)(F)F [Perfluorohexanoic acid]
LDH release cytotoxicity (0.03162 µM): -0.915 ± 0.22% | LDH release cytotoxicity (0.1 µM): -0.436 ± 0.56% | LDH release cytotoxicity (0.3162278 µM): -1.48 ± 0.11% | LDH release cytotoxicity (1 µM): -1.3 ± 0.12% | LDH release cytotoxicity (3.16228 µM): -1.58 ± 0.4% | LDH release cytotoxicity (10 µM): -0.342 ± 0.24% | LDH release cytotoxicity (31.6228 µM): -0.769 ± 0.29% | LDH release cytotoxicity (100 µM): 0.349 ± 0.23%

O=C(O)C(F)(F)C(F)(F)C(F)(F)C(F)(F)C(F)(F)C(F)(F)C(F)(F)C(F)(F)F [Perfluorononanoic acid]
LDH release cytotoxicity (0.03162 µM): -0.689 ± 0.78% | LDH release cytotoxicity (0.1 µM): -1.58 ± 0.88% | LDH release cytotoxicity (0.3162278 µM): -1.12 ± 0.43% | LDH release cytotoxicity (1 µM): -2.4 ± 0.24% | LDH release cytotoxicity (3.16228 µM): -1.4 ± 0.082% | LDH release cytotoxicity (10 µM): -1.71 ± 0.11% | LDH release cytotoxicity (31.6228 µM): -1.31 ± 0.22% | LDH release cytotoxicity (100 µM): 27.5 ± 4.5%
